In publication PMC11789599, “Co‐Translational Deposition of N ^6‐Acetyl‐L‐Lysine in Nascent Proteins Contributes to the Acetylome in Mammalian Cells” (Advanced Science, 2024):

Tests used:
[1] = target: T1, Lysyl-tRNA synthetase (KARS) (Homo sapiens, UniProt Q15046); test: co-crystal structure at […] Å; MST Kd; also ATP consumption/AMP production by purified KARS; assay type: binding; parameters: gene KARS1; KARS70-580, C-terminal 6xHis
[2] = target: T1, Lysyl-tRNA synthetase (KARS); test: biochemical; parameters: gene KARS1

T1 sequence (Q15046 70-580): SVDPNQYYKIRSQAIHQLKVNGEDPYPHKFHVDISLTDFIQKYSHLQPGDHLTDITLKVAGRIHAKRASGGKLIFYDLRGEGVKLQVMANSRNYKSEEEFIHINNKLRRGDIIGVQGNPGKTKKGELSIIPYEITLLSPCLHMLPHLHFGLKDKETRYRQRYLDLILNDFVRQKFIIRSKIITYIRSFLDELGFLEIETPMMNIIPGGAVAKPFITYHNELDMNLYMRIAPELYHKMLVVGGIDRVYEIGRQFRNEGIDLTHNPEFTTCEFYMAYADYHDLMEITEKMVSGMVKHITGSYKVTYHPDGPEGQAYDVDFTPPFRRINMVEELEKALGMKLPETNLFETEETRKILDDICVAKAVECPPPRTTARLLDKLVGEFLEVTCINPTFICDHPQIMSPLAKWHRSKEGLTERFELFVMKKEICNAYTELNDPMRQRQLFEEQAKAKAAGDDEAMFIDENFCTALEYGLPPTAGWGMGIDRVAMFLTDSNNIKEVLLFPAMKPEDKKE

SMILES	Kd [1]	Kd [2]
CC(=O)NCCCC[C@H](N)C(=O)O [AcK, N6-acetyl-L-lysine]	407 ± 291 µM	
NCCCC[C@H](N)C(=O)O [L-lysine]		118 ± 55.5 µM
